What was measured:
[1] = system: subjects with Dry Eye Disease; assay: Phase 2 multi-center, randomized, double-masked, saline-controlled clinical study (NCT03333057), signs and symptoms overall; format: in vivo, human
Description: A Phase 2, Multi-Center, Randomized, Double-Masked, Saline-Controlled Study to Evaluate the Effect of 1-Perfluorohexyloctane (NOV03) at two different dosing regimens on signs and symptoms of Dry Eye Disease (DED) was conducted. The study was performed at 11 investigational cites in the United States. The study was reviewed and approved by the respective ethics committees and registered at www.clinicaltrials.gov (NCT03333057).
The primary objective for this study is to evaluate the efficacy, safety, and tolerability of an ophthalmic composition essentially consisting of 1-perfluorohexyloctane (NOV03) at two different dosing regimens (QID, BID) compared to saline solution in subjects with Dry Eye Disease. The secondary objectives are to compare the effect of an ophthalmic composition essentially consisting of 1-perfluorohexyloctane (NOV03) and saline solution at two different dosing regimens on signs and symptoms of Dry Eye Disease and to evaluate the pharmacokinetics after 57 days dosing.
Subjects must: • a. Be at least 18 years of age. • b. Provide written informed consent. • c. Have a subject reported history of Dry Eye Disease in both eyes for at least 6 months prior to Visit 0. • d. […] Have Meibomian Gland Dysfunction (MGD) defined as MGD score≥3 (secretion of 5 central glands on lower eyelid will be evaluated, each will be scored from 0-3; 0=normal, 1=thick/yellow, whitish, particulate 2=paste; 3=none/occluded; total score will range from 0-15) at Visit 0 and Visit 1. • h. […]
Screening (Visit 0); Within 14 days before Visit 1 Subjects will be required to sign an Informed Consent before completing any study related procedure. At the screening visit, vital signs will be assessed and the subject will give blood for safety laboratory tests. […]
Baseline Visit Day 1 (Visit 1): On Day 1 (Visit 1), eligible subjects will be evaluated for baseline signs and symptoms of dry eye disease. […]
Visits 2-4; Subjects will return to the clinic on Day 15±1 (Visit 2), 29±2 (Visit 3), and 57±2 (Visit 4) to be evaluated for signs and symptoms of dry eye disease. […]

[2] = system: cornea of subjects with Dry Eye Disease; assay: Corneal fluorescein staining, NEI grading scale (ocular surface damage); format: in vivo, human
Description: A Wratten #12 yellow filter will be used to enhance the ability to grade fluorescein staining. The staining will be graded with the NEI (National Eye Institute) Grading
Scale. Only the staining of the cornea will be graded. Digital images of fluorescein staining may be taken for digital analysis.
Based on the NEI/Industry Workshop Scale, the grade of the ocular surface damage for each eye is scored for each of the five regions of the cornea based on measuring fluorescein uptake.
Grade 0 will be specified when no fluorescein staining is present. Grades 1, 2 and 3 define an increasing density and degree of observed fluorescein staining, The maximum total score for each eye is 15.

[3] = system: subjects with Dry Eye Disease; assay: Visual Analog Scale (VAS) Eye Dryness Score questionnaire; format: in vivo, human; conditions: QID
Description: An Eye Dryness Score was determined based on a 10-item questionnaire provided to subjects, where subjects were asked to rate their ocular symptoms (both eyes simultaneously) due to ocular dryness by placing a vertical mark on a horizontal line scale to indicate the level of discomfort (0% corresponds to “no dryness” and 100% corresponds to “maximal dryness”). Subjects are asked about the severity of dry eye symptoms, namely the symptoms of dryness representing the first 8 questions of the VAS questionnaire corresponding to: dryness (corresponding to the first question in the VAS questionnaire, and also referred to in the text and in the graphs as “severity of dryness”; with the terms “dryness” and “severity of dryness” being used interchangeably herein as a dry eye symptom designation, sticky feeling, burning/stinging, foreign body sensation, itching, blurred vision, sensitivity to light, and pain.
Subjects are also asked about their awareness of their dry eye symptoms and frequency of their dry eye symptoms, namely questions 9-10 of the VAS questionnaire. The rating for these questions is indicated by the subject by placing a vertical mark on a horizontal line scale to indicate the percentage of time of awareness or frequency, with 0% corresponding to ‘never’ and 100% corresponding to ‘all of the time’.

[4] = system: subjects with Dry Eye Disease; assay: Ocular Surface Disease Index (OSDI) questionnaire; format: in vivo, human
Description: The Ocular Surface Disease Index (OSDI©)) is perhaps the most frequently used survey instrument for the assessment of ocular surface disease severity in dry eye research. The OSDIC was created by the Outcomes Research Group at Allergan Inc in order to quickly assess the symptoms of ocular irritation in dry eye disease and how they affect functioning related to vision. This 12-item questionnaire assesses dry eye symptoms and the effects it has on vision-related function in the past week of the patient's life. The questionnaire has 3 subscales: ocular symptoms, vision-related function, and environmental triggers. Patients rate their responses on a 0 to 4 scale with 0 corresponding to “none of the time” and 4 corresponding to “all of the time.” A final score is calculated which ranges from 0 to 100.
The questions assess the following: dry eye symptoms experienced by the patient within past week: sensitivity to light, gritty sensation, pain or sore eyes, blurriness, and poor vision; vision-related function, in terms of problems in the past week with regards to: reading, driving at night, working on a computer or bank machine, watching television; and in terms of environmental factors or triggers i.e. discomfort experienced in the past week during: windy conditions, places with low humidity, and areas with air condition.
Subtotals are obtained for all the questions, as well as the total number of questions answered. The OSDI index is assessed based on a scale of 0 to 100, with higher scores representing a greater disability. The OSDI index is calculated from the sum of the scores multiplied by a factor of 25, over the total number of questions answered. Higher scores represent a greater degree/severity and impact of dry eye disease.

Density = format: physicochemical
[5] = QID, after 2 weeks of treatment
[6] = QID, significant also at 4 weeks, 8 weeks

In the case of CCCCCCCCC(F)(F)C(F)(F)C(F)(F)C(F)(F)C(F)(F)C(F)(F)F [NOV03, 1-perfluorohexyloctane], the “signs and symptoms of dry eye disease” value ([1]; 4 times daily, single drop of 10-12 μl, highly symptomatic DED population with significant MGD involvement) is reported as “relevant and statistically significant improvements”, the “benefit in patient population by baseline characteristics” value ([1]; QID, OSDI between 38 and 72, TBUT between 2.1 and 3.9 seconds or MGD score between 4.0 and 11.2, and/or total corneal fluorescein staining between 4.8 and 9.2) is reported as “beneficial” and the “benefit in patients meeting one or more baseline criteria” value ([1]; QID, TBUT equal or lower than 3, OSDI higher than 57, total corneal fluorescein staining between 5 and 9, MGD score equal or higher than 7, Schirmer I Test greater or equal than 10 mm) is reported as “especially benefitted”. For the same molecule, the “reduction of ocular surface damage, superior corneal region” value ([2]; QID vs saline) was “did not show such clear improvement”, the “reduction of ocular surface damage, central corneal region” value ([2]; QID vs saline, 2, 4, 8 weeks) was “clear improvements” and the “reduction of ocular surface damage, inferior corneal region” value ([2]; QID vs saline, 2, 4, 8 weeks) was “clear improvements”. For the same molecule, the “reduction of ocular surface damage, nasal corneal region” value ([2]; QID vs saline, 2, 4, 8 weeks) was “clear improvements”, the “reduction of ocular surface damage, temporal corneal region” value ([2]; QID vs saline, 2, 4, 8 weeks) was “clear improvements” and the “patients with improvement of ≥1 grade in central corneal staining” value [2, 5] was 39%. The “patients with improvement of ≥3 grades in total corneal staining” value [2, 5] was 32%, the “patients with improvement of ≥1 grade in central corneal staining” value ([2]; QID, after 8 weeks) was 50% and the “patients with improvement of ≥3 grades in total corneal staining” value ([2]; QID, after 8 weeks) was 42%. For the same molecule, the “total corneal fluorescein staining (primary efficacy endpoint), reduction of ocular surface damage of the total corneal region” value ([2]; QID, at 8 weeks, vs saline) was “met its prespecified primary efficacy endpoint”, the “start of treatment effect relating to the signs” value [2, 6] was 2 weeks and the VAS pain ([3]; at the 4 week timepoint, higher variability) was “did not improve”. For the same molecule, the “VAS awareness of dryness” value ([3]; over the placebo group) was “highly statistical significant improvement”, the VAS blurred vision ([3]; over the placebo group) was “highly statistical significant improvement” and the VAS burning/stinging ([3]; over the placebo group) was “highly statistical significant improvement”. The “VAS foreign body sensation” value ([3]; over the placebo group) was “highly statistical significant improvement”, the “VAS frequency of dryness” value ([3]; over the placebo group) was “highly statistical significant improvement” and the VAS itching ([3]; over the placebo group) was “highly statistical significant improvement”. The “VAS sensitivity to light” value ([3]; over the placebo group) was “highly statistical significant improvement”, the “VAS severity of dryness” value ([3]; over the placebo group) was “highly statistical significant improvement” and the VAS sticky feeling ([3]; over the placebo group) was “highly statistical significant improvement”. The “VAS severity of dryness in patients with Schirmer I Test of greater or equal than 10 mm” value ([3]; subpopulation with normal tear production, DED associated with MGD, 8 weeks) was “significant change from baseline”, the “start of treatment effect relating to the VAS symptoms” value ([3]; significant also at 4 weeks, 8 weeks) was 2 weeks and the OSDI blurred vision ([4]; QID vs saline) was “clear improvements”. For the same molecule, the “OSDI eyes feeling gritty” value ([4]; QID vs saline) was “clear improvements”, the “OSDI painful or sore eyes” value ([4]; QID vs saline) was “clear improvements” and the OSDI poor vision ([4]; QID vs saline) was “clear improvements”. The “OSDI problems with driving at night” value ([4]; QID vs saline) was “clear improvements”, the “OSDI problems with watching TV” value ([4]; QID vs saline) was “clear improvements” and the OSDI reading problems ([4]; QID vs saline) was “clear improvements”. The “OSDI sensitivity to light” value ([4]; QID vs saline) was “clear improvements”, the “OSDI uncomfortable in areas that are air conditions” value ([4]; QID vs saline) was “clear improvements” and the “OSDI uncomfortable in areas with low humidity” value ([4]; QID vs saline) was “clear improvements”. For the same molecule, the “OSDI uncomfortable under windy conditions” value ([4]; QID vs saline) was “clear improvements”, the “OSDI problems with working with a computer or bank machine (ATM)” value ([4]; QID, at the 4 and 8-week timepoint, higher data variability) was “did not improve” and the “total OSDI score” value ([4]; QID, over the placebo group) was “highly statistical significant improvement”. For the same molecule, the “start of treatment effect relating to the OSDI symptoms” value [4, 6] was 2 weeks, the density (Density) was 1.35 g/mL and the “density (d)” value (Density) was 1.35 g/mL.

From patent US20250295607A1, “OPHTHALMIC COMPOSITIONS FOR TREATMENT OF OCULAR SURFACE DAMAGE AND SYMPTOMS OF DRYNESS” (Novaliq GmbH, priority 2018, published 2025)
